Converted amounts (≈) assume the structure as drawn. “Also recorded” adds a separate entry of the source. Counter-ions that a name gives are not always drawn.
Assays:
P2X3 [1] = settings: oral; cited from earlier work
[2] = Dissolution in Fasted State Simulated Gastric Fluid (FaSSGF), manual experiment, 37 °C; format: physicochemical; settings: for Solubility: 37 °C
Method: The dissolution in Fasted State Simulated Gastric Fluid (FaSSGF) of mesylate salt Form 2 of the compound A of Example 2 and esylate salt Form 1 of Example 6 in comparison with the free base Form A and with other salts was tested by means of manual experiment. The medium for simulated oral fluids was FaSSGF obtained from Biorelevant.com Ltd. The experiments were conducted for 60 minutes at 37 °C.
General preparation of salts: in a round-bottomed flask, 200 mg of compound A free base Form A according to Example 1 (0.52 mmol) were suspended in 5 ml of solvent and stirred at RT. Acetone was employed for bromide, ethanedisulfonate, malonate, sulfate, saccharinate, tosylate, orotate, besylate, hemisulfate, phosphate and tartrate salts; water was employed for chloride salt; ethyl formate was employed for maleate, oxalate, gentisicate, fumarate and mandelate salts; tetrahydrofuran was employed for camphorsulfonate and pamoate salts; isopropyl acetate was employed for 4-hydroxybenzoate and methanol for camphorate salt. The corresponding acid was added under stirring in equimolar amount (except for hemisulfate, added in 0.5 molar amount). After 1 hour the crystalline solid was isolated by filtration, washed with the corresponding solvent (2×1 ml) and dried under nitrogen for 2 hours.
The quantification of the dissolved amount was done by LC/UV system at different checkpoints up to 60 minutes. The saturation solution concentration was around 25-30 mg/ml. […] In a second experiment, the quantification was repeated with saturation solution concentration 170 mg/ml for the mesylate salt Form 2 and 100 mg/ml for the esylate salt Form 1. The results are reported in tables 8A, 8B, 8C, 8D and FIG. 28.

P2X3 [3] = settings: disclosed in WO2020239951 A1; cited from earlier work
[4] = Dynamic vapour sorption (DVS), hygroscopicity; format: physicochemical; settings: between 20% and 80% RH
Method: Moisture sorption/desorption data were collected on a TA Instruments Vapor Sorption Analyzer Q5000SA.
First step: sorption data was collected in the range 40% to 90% relative humidity (RH).
Second Step: desorption, sorption and desorption data were collected over a range of 0% to 90% RH at 10% RH intervals under a nitrogen purge. Samples were not dried prior to analysis. Equilibrium criteria used for analysis were less than 0.100% weight change in 20 minutes, with a maximum equilibration time of 1 hour if the weight criterion was not met. Data were not corrected for the initial moisture content of the samples. NaBr was used as humidity verification.
Moisture sorption/desorption data were also collected on a ProUmid SnS 23 equipped with a 23 autosampler following Method 1.
In the first step sorption data was collected in the range 0% to 90% RH. Samples were not dried prior to analysis.
In the second Step desorption, sorption and desorption data were collected over a range of 0% to 90% (RH) at 10% RH intervals under a nitrogen purge. Data were not corrected for the initial moisture content of the samples.

[5] = Comparative stability at 40 °C and 75% RH at open conditions (UPLC/UV and XRPD); format: physicochemical; settings: 40 °C/75% RH open
Method: In a second experiment, approximately 100 mg of compound A mesylate salt Form 2 according to Example 2, free base Form A according to Example 1 and esylate salt Form 1 according to Example 6 were stored in three open amber glass vials covered with filter paper to simulate open conditions. The samples were stored in a stability chamber at 75% RH and 40 °C to compare their stability. At the time points 0, 28, 56, 84 days the corresponding samples were removed from the stability chambers. After conditioning at RT, the samples were analyzed by UPLC/UV and XRPD.

[6] = Two-sector dissolution study (FaSSGF then FaSSIF), parachute effect; format: physicochemical; settings: third experiment
Method: The dissolution behaviour of mesylate salt Form 2 of compound A was studied in a two-sector model in comparison with free base Form A to evaluate a possible “spring-parachute effect”.
The parachute effect is observable in two-sector dissolution studies. A test compound is incubated with FaSSGF and its concentration is monitored over time. FaSSIF is then added to the solution whilst continuing the monitoring. The period of time in which the test compound remains in solution without or before precipitating refers to the supersaturation time and represents the parachute effect.
The experiment was conducted using DISS Profiler 6 Channel Pion. The free base Form A and mesylate salt Form 2 of compound A were each incubated in 8 ml of FaSSGF (pH 1.6) for 20 minutes at the concentration of 350 mg/250 ml. 16 ml of FaSSIF concentrated 1.5× (pH 6.5) was added with an incubation time of 180 minutes. The resulting target pH should be approximately 5-6. The experiment was conducted at 37 °C. The entire dissolution profile was monitored until the end of the experiment to evaluate a possible parachute effect, its duration and to evaluate the maximum solubility reached after the addition of FaSSIF.
A second experiment was conducted, with an additional step of adjusting the pH to 6.5 after FaSSIF addition. Both free base Form A and mesylate salt Form 2 of compound A were tested.
A third experiment was conducted on esylate salt Form 1 of compound A, using the same protocol of the second experiment, with free base Form A and mesylate salt Form 2 of compound A as controls. The experiment was aimed at evaluating comparatively a possible parachute effect of the esylate salt and its duration. Precipitation of the free base was observed after roughly 20 minutes, while precipitation of the esylate salt and mesylate salt were observed after 30 and 40 minutes respectively.

[7] = preclinical models; cited from earlier work
[8] = local delivery; cited from earlier work
[9] = second experiment (saturation conc. 170 mg/ml mesylate, 100 mg/ml esylate), 0 min
[10] = first experiment (saturation conc. around 25-30 mg/ml), 5 min

| SMILES | Solubility [2, 9] [µg/mL] | Solubility ([2]; second experiment, 15 min) [µg/mL] | Solubility ([2]; second experiment, 60 min) [µg/mL] | Solubility ([2]; second experiment, 30 min) [µg/mL] | also measured |
| --- | --- | --- | --- | --- | --- |
| COc1cc(C(C)C)c(Oc2cnc(N)nc2N)cc1S(N)(=O)=O [AF-219] |  |  |  |  | Hypersensitivity of the cough reflex (P2X3 [1]): dramatically reduced |
| COc1cc(-c2ccc(F)cn2)cc2c(N[C@H](C)c3noc(C)n3)ncnc12 [bromide] | 720 | 2520 | 2880 |  |  |
| COc1cc(-c2ccc(F)cn2)cc2c(N[C@H](C)c3noc(C)n3)ncnc12 [ethanedisulfonate] | 490 |  | 1060 |  |  |
| COc1cc(-c2ccc(F)cn2)cc2c(N[C@H](C)c3noc(C)n3)ncnc12 [camphorsulfonate] | 510 | 10510 | 13450 | 11840 |  |
| COc1cc(-c2ccc(F)cn2)cc2c(N[C@H](C)c3noc(C)n3)ncnc12 [fumarate] | 550 | 4980 | 5890 | 5760 | Solubility [2, 10]: 3290 µg/mL; Solubility ([2]; first experiment, 10 min): 3360 µg/mL; Solubility ([2]; first experiment, 20 min): 3350 µg/mL; Solubility ([2]; first experiment, 40 min): 3610 µg/mL; Solubility ([2]; first experiment, 60 min): 3580 µg/mL |
| COc1cc(-c2ccc(F)cn2)cc2c(N[C@H](C)c3noc(C)n3)ncnc12 [Compound A, (R)-6-(5-fluoropyridin-2-yl)-8-methoxy-N-(1-(5-methyl-1,2,4-oxadiazol-3-yl)ethyl)quinazolin-4-amine] |  |  |  |  | P2X3 inhibition (P2X3 [3]): potent and selective P2X3 inhibitor |
| COc1cc(-c2ccc(F)cn2)cc2c(N[C@H](C)c3noc(C)n3)ncnc12 [besylate] | 1010 |  | 21840 |  |  |
| COc1cc(-c2ccc(F)cn2)cc2c(N[C@H](C)c3noc(C)n3)ncnc12 [mesylate salt Form 6, (R)-6-(5-fluoropyridin-2-yl)-8-methoxy-N-(1-(5-methyl-1,2,4-oxadiazol-3-yl)ethyl)quinazolin-4-amine] |  |  |  |  | Hygroscopicity [4]: No hygroscopicity was noted; also recorded: substantially no hygroscopicity; Total water uptake [4]: 0.3% |
| COc1cc(-c2ccc(F)cn2)cc2c(N[C@H](C)c3noc(C)n3)ncnc12 [esylate salt Form 1, (R)-6-(5-fluoropyridin-2-yl)-8-methoxy-N-(1-(5-methyl-1,2,4-oxadiazol-3-yl)ethyl)quinazolin-4-amine] |  |  |  |  | Stability ([5]; 84 days): surprisingly good stability during stressed storage; % area main peak (LC/UV) ([5]; 0 days): 99.9 % area; Duration of the parachute effect compared to free base Form A [6]: longer duration of the parachute effect; Time of precipitation ([6]; protocol of the second experiment): 30 min; Solubility ([2]; first experiment (saturation conc. around 25-30 mg/ml), 5 min, listed as esylate Form 1, 5 min): 24270 µg/mL; Solubility ([2]; first experiment, 10 min, listed as esylate Form 1, 10 min): 24740 µg/mL; Solubility ([2]; first experiment, 20 min, listed as esylate Form 1, 20 min): 24870 µg/mL; Solubility ([2]; first experiment, 40 min, listed as esylate Form 1, 40 min): 24760 µg/mL; Solubility ([2]; first experiment, 60 min): ≥ 25000 µg/mL; Solubility ([2]; first experiment, 60 min, listed as esylate Form 1, 60 min): 24590 µg/mL; Solubility ([2]; second experiment, 30 min, listed as esylate Form 1, 30 min): 61300 µg/mL; Solubility ([2]; second experiment, 60 min, listed as esylate Form 1, 60 min): 68460 µg/mL; Solubility compared to free base Form A ([2]; 60 minutes): consistently higher solubility than the free base Form A during the 60 minutes time; Dissolution ([2]; first experiment, saturation conc. around 25-30 mg/ml): completely dissolved |
| COc1cc(-c2ccc(F)cn2)cc2c(N[C@H](C)c3noc(C)n3)ncnc12 [chloride] | 690 | 8630 | 10870 |  |  |
| Nc1ncnc2c1ncn2[C@@H]1O[C@H](COP(=O)(O)OP(=O)(O)OP(=O)(O)O)[C@@H](O)[C@H]1O [ATP, Adenosine 5-TriPhosphate] |  |  |  |  | Citric acid-evoked and histamine-evoked cough [7]: enhances citric acid-evoked and histamine-evoked cough; Cough and bronchospasm [8]: initiates cough and bronchospasm |

Further lines, with some results ahead:

| Solubility [2, 9] [µg/mL] | Solubility ([2]; second experiment, 15 min) [µg/mL] | Solubility ([2]; second experiment, 60 min) [µg/mL] | Solubility ([2]; second experiment, 30 min) [µg/mL] | SMILES | also measured |
| --- | --- | --- | --- | --- | --- |
| 30 | 4890 | 6520 |  | COc1cc(-c2ccc(F)cn2)cc2c(N[C@H](C)c3noc(C)n3)ncnc12 [pamoate] |  |
| 430 (≈ 1130 µM) | 800 (≈ 2100 µM) | 830 (≈ 2180 µM) | 870 (≈ 2290 µM) | COc1cc(-c2ccc(F)cn2)cc2c(N[C@H](C)c3noc(C)n3)ncnc12 [saccharinate] | Solubility [2, 10]: 900 µg/mL (≈ 2370 µM); Solubility ([2]; first experiment, 10 min): 1030 µg/mL (≈ 2710 µM); Solubility ([2]; first experiment, 20 min): 1090 µg/mL (≈ 2870 µM); Solubility ([2]; first experiment, 40 min): 1080 µg/mL (≈ 2840 µM); Solubility ([2]; first experiment, 60 min): 1020 µg/mL (≈ 2680 µM) |
| 1730 | 10710 | 13870 | 11700 | COc1cc(-c2ccc(F)cn2)cc2c(N[C@H](C)c3noc(C)n3)ncnc12 [oxalate] | Solubility [2, 10]: 90 µg/mL; Solubility ([2]; first experiment, 10 min): 90 µg/mL; Solubility ([2]; first experiment, 20 min): 80 µg/mL; Solubility ([2]; first experiment, 40 min): 90 µg/mL; Solubility ([2]; first experiment, 60 min): 90 µg/mL |
| 1280 (≈ 3370 µM) | 10880 (≈ 28600 µM) | 10990 (≈ 28900 µM) | 9300 (≈ 24400 µM) | COc1cc(-c2ccc(F)cn2)cc2c(N[C@H](C)c3noc(C)n3)ncnc12 [mandelate] |  |
| 610 | 4670 | 4970 | 4860 | COc1cc(-c2ccc(F)cn2)cc2c(N[C@H](C)c3noc(C)n3)ncnc12 [tosylate] |  |
| 210 | 15210 | 14320 | 14850 | COc1cc(-c2ccc(F)cn2)cc2c(N[C@H](C)c3noc(C)n3)ncnc12 [phosphate] |  |

Source: patent US20260356826A1, “SALTS OF AMINO QUINAZOLINE DERIVATIVES” (CHIESI FARMACEUTICI S.P.A., priority 2023, published 2026)
